Reference: patent publication US4895727A, “Pharmaceutical vehicles for exhancing penetration and retention in the skin” (priority 1985, dated 1990)

test system: not given; details: background; cited from earlier work

Compound | systemic toxicity
CN(Cc1cnc2nc(N)nc(N)c2n1)c1ccc(C(=O)N[C@@H](CCC(=O)O)C(=O)O)cc1 [methotrexate] | systemically toxic

test system: human breast adenocarcinoma, MX-1; details: in vivo

Compound | Premature Death | Tumor Free 60 Days | Tumor Recurrence | Tumor at Death
COc1cc(C2c3cc4c(cc3C(OC3OC5COC(c6cccs6)OC5C(O)C3O)C3COC(=O)C23)OCO4)cc(OC)c1O (stereo not drawn) [VM-26 (no Zn), epipodophyllotoxin beta-D thenylidene glucopyranoside] | 0 | 0 | 0 | 5
O=P1(N(CCCl)CCCl)NCCCO1 (centres unmarked) [cyclophosphamide (no Zn), cyclophosphamide] | 0 |  |  | 5
norisoguaiacin [norisoguaiacin (no Zn)] | 1 |  |  | 1
O=C(O)C=Cc1ccc(O)cc1 [p-hydroxycinnamic acid (no Zn), p-hydroxycinnamic acid] | 0 |  |  | 
CC(Cc1ccc(O)c(O)c1)C(C)Cc1ccc(O)c(O)c1 (racemic) [dl-NDGA (no Zn), nordihydroguaiaretic acid] | 0 |  |  | 1
CO[C@@]12[C@H](COC(N)=O)C3=C(C(=O)C(C)=C(N)C3=O)N1C[C@@H]1N[C@@H]12 [mitomycin (no Zn), mitomycin] | 4 |  |  | 
COc1cccc2c1C(=O)c1c(O)c3c(c(O)c1C2=O)C[C@@](O)(C(=O)CO)C[C@@H]3O[C@H]1C[C@H](N)[C@H](O)[C@H](C)O1 [adriamycin (no Zn), adriamycin] | 1 |  |  | 
CC(C)(C)c1cccc(O)c1 [3-tertbutylphenol (no Zn), 3-tertbutylphenol] | 3 |  |  | 
COc1cc(C2c3cc4c(cc3C(OC3OC5COC(C)OC5C(O)C3O)C3COC(=O)C23)OCO4)cc(OC)c1O (stereo not drawn) [VP-16 (no Zn), epipodophyllotoxin beta-D ethylidene glucopyranoside] | 2 | 2 | 0 | 3
Oc1ccc(CCc2ccc(CCc3ccc(O)c(O)c3)cc2)cc1O [1,4-bis(3,4-dihydroxyphenethyl)-benzene] | 0 |  |  | 
O=C(O)CCCCCCCC(=O)O [azelaic acid (no Zn), azelaic acid] | 0 |  |  | 
COc1cccc2c1C(=O)c1c(O)c3c(c(O)c1C2=O)C[C@@](O)(C(C)=O)C[C@@H]3O[C@H]1C[C@H](N)[C@H](O)[C@H](C)O1 [daunomycin (no Zn), daunomycin] | 2 |  |  | 
Oc1ncnc2[nH]ncc12 [allopurinol (no Zn), allopurinol] | 0 |  |  | 
CC/C(=C(/CC)c1ccc(O)cc1)c1ccc(O)cc1 [diethylstilbestrol (no Zn), diethylstilbestrol] | 2 |  |  | 
CC(=O)Oc1ccc(C=CC=Cc2ccccc2)cc1OC(C)=O [1-(3,4-diacetoxyphenyl)-4-phenyl-buta-1,3-diene] | 0 |  |  | 
N.N.[Cl][Pt][Cl] [platinum cis-diamine-dichloride (no Zn), platinum cis-diamine-dichloride] | 0 |  |  | 4
O=C1c2c(O)cccc2Cc2cccc(O)c21 [dithranol (no Zn), dithranol] | 0 |  |  | 
COc1cc(C2c3cc4c(cc3C(O)C3COC(=O)C23)OCO4)cc(OC)c1O (centres unmarked) [4'-demethylepipodophyllotoxin (no Zn), 4'-demethylepipodophyllotoxin] | 0 | 1 | 3 | 4

same assay, conditions: number of animals of five; single intratumor injection 0.01 ml; standard dosage level

Compound | Tumor Free 60 Days | Tumor Recurrence
O=P1(N(CCCl)CCCl)NCCCO1 (centres unmarked) [cyclophosphamide (no Zn), cyclophosphamide] | 0 | 0
norisoguaiacin [norisoguaiacin (no Zn)] | 2 | 0
CC(Cc1ccc(O)c(O)c1)C(C)Cc1ccc(O)c(O)c1 (racemic) [dl-NDGA (no Zn), nordihydroguaiaretic acid] | 4 | 0
N.N.[Cl][Pt][Cl] [platinum cis-diamine-dichloride (no Zn), platinum cis-diamine-dichloride] | 1 | 0

test system: not given; details: 0.257 moles per 100 grams; general statement; cited from earlier work

Compound | concentration causing tissue destruction when topically applied
[Cl-].[Cl-].[Zn+2] [zinc chloride] | ≥ 35%
